We go through 28 compounds from patent US20090181963A1, “3H-[1,2,3]TRIAZOLO[4,5-D]PYRIMIDINE COMPOUNDS, THEIR USE AS mTOR KINASE AND PI3 KINASE INHIBITORS, AND THEIR [sequence]” (Wyeth, priority 2008, published 2009).

Some results are limits rather than exact numbers.

One assay deals with PI3 Kinase α (Homo sapiens, UniProt P42336). Put plainly: Fluorescence polarization assay for PI3K (PI3 Kinase α). The assay is classed as biochemical. To be noted: diC8-PI(4,5)P2 substrate, 25 μM ATP, one hour at 25° C.
A further assay addresses PI3 Kinase γ (Homo sapiens, UniProt P48736). Briefly: Fluorescence polarization assay for PI3K (PI3 Kinase γ). The assay is classed as biochemical. The note with it: diC8-PI(4,5)P2 substrate, 25 μM ATP, one hour at 25° C.

PI3 Kinase γ, sequence (P48736 whole entry): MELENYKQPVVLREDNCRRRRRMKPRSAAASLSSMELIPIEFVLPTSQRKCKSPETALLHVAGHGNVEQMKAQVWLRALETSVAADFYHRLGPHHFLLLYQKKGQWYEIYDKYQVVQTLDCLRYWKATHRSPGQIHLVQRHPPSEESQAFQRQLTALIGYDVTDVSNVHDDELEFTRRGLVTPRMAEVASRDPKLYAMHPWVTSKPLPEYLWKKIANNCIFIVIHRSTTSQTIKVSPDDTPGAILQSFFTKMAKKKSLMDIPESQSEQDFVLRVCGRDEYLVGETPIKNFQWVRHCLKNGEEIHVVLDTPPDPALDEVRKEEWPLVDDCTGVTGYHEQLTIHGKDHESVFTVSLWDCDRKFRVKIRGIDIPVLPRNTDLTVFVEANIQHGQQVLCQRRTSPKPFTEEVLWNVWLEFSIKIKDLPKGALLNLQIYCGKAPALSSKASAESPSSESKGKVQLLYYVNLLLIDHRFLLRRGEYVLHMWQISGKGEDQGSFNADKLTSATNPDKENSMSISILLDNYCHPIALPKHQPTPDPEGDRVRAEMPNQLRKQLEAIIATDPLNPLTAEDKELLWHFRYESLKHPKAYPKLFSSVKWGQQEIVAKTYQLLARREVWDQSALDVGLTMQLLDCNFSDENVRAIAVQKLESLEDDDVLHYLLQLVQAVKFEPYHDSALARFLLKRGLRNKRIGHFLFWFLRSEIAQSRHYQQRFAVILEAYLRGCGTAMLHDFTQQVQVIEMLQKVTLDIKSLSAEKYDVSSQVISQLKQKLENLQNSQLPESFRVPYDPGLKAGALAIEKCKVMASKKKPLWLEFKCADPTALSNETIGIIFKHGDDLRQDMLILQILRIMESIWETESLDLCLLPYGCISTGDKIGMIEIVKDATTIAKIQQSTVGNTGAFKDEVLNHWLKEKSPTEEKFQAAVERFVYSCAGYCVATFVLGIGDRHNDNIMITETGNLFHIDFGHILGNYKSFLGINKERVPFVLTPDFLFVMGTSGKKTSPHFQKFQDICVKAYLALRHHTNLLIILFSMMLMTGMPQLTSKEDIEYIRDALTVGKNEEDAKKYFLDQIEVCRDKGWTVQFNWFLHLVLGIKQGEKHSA
PI3 Kinase α, sequence (P42336 whole entry): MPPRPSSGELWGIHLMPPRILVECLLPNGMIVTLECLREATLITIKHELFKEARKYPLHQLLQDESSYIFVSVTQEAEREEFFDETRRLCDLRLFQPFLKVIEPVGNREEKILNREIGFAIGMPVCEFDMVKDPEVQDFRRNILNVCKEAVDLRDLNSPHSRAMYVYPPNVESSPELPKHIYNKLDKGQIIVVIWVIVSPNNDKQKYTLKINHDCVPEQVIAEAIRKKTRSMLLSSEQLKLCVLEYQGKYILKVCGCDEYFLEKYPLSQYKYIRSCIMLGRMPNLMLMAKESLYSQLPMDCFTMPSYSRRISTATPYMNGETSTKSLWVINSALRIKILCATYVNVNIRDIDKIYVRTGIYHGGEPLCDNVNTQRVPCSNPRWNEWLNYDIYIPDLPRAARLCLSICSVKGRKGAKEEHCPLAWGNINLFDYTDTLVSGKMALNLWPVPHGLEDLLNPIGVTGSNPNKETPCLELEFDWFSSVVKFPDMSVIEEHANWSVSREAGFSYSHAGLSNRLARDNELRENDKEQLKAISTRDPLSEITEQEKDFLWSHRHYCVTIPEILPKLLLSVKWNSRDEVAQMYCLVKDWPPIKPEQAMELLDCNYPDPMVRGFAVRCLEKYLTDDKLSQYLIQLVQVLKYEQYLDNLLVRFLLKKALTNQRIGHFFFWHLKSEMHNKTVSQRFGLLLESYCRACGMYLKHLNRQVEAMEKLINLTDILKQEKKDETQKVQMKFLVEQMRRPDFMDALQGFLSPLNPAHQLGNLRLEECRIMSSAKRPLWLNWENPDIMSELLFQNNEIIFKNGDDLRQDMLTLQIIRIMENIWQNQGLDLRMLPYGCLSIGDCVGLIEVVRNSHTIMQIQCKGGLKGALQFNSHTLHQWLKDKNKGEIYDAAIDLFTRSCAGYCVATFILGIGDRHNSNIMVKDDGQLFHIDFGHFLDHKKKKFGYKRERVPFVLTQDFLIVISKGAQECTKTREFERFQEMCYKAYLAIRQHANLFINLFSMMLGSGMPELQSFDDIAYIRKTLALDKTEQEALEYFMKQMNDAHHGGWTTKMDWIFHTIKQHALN
PI3 Kinase α, sequence (P27986 whole entry partner): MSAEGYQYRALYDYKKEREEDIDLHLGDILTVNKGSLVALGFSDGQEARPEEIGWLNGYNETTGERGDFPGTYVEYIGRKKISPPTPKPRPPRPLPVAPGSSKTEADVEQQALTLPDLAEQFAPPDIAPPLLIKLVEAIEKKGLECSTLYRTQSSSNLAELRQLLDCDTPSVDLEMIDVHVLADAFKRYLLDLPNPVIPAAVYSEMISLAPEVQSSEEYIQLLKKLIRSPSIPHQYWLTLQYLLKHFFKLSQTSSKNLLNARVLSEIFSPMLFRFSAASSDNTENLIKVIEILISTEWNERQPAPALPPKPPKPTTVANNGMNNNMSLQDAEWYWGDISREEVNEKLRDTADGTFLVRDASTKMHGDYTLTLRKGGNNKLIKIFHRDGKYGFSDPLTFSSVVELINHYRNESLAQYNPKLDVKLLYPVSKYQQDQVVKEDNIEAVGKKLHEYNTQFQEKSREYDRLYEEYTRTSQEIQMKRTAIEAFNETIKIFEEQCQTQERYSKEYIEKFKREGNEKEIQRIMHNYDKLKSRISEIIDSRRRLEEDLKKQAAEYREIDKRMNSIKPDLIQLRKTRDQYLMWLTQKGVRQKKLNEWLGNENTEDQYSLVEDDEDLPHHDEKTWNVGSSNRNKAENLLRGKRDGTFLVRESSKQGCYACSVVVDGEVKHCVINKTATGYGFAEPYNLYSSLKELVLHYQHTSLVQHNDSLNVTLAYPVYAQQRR
Procedure for PI3 Kinase α: (§1) Nunc 384 well black polypropylene fluorescent plates were used for PI3K assays. Reactions were quenched by the addition of EDTA to a final concentration of 10 μM. Final reaction volumes were 10 ml. […] Reactions were allowed to proceed for one hour at 25° C. After I hour, GST-tagged GRP1 (general receptor for phosphoinositides) PH domain fusion protein was added to a final concentration of 100 nM, and BODIPY-TMRI(1,3,4,5)P4 (Echelon) was also added to a final concentration of 5 nM. Final sample volumes were 25 μl with a final DMSO concentration of 0.8%. Assay Plates were read on PerkinElmer Envision plate readers with appropriate filters for Tamra [BODIPY-TMRI(1,3,4,5)P4]. Data obtained were used to calculate enzymatic activity and enzyme inhibition by inhibitor compounds.
Procedure for PI3 Kinase γ: as §1

For the compound `Oc1cncc(-c2nc(N3CCOCC3)c3nnn(C4CCN(Cc5ccc(F)c(F)c5)CC4)c3n2)c1` [Example 18, 5-{3-[1-(3,4-difluorobenzyl)piperidin-4-yl]-7-morpholin-4-yl-3H-[1,2,3]triazolo[4,5-d]pyrimidin-5-yl}pyridin-3-ol], the IC50 came out at 75 nM on PI3 Kinase α and 261 nM at PI3 Kinase γ.

Regarding `COC(Cn1nnc2c(N3CCOCC3)nc(-c3ccc(N)cc3)nc21)OC` [Example 178, 4-[3-(2,2-dimethoxyethyl)-7-morpholin-4-yl-3H-[1,2,3]triazolo[4,5-d]pyrimidin-5-yl]aniline], the IC50 is 1340 nM on PI3 Kinase α and over 10000 nM at PI3 Kinase γ.

Turning to `COC(=O)c1ccc(Cn2nnc3c(N4CCOCC4)nc(-c4cc(O)cc(F)c4)nc32)cc1` [Example 244, methyl 4-{[5-(3-fluoro-5-hydroxyphenyl)-7-morpholin-4-yl-3H-[1,2,3]triazolo[4,5-d]pyrimidin-3-yl]methyl}benzoate], the IC50 on PI3 Kinase α came to 1510 nM; against PI3 Kinase γ, 1610 nM.

Take `Oc1cccc(-c2nc(N3CCOCC3)c3nnn(CCN4CCN(Cc5cccc(F)c5)CC4)c3n2)c1` [Example 109, 3-(3-{2-[4-(3-fluorobenzyl)piperazin-1-yl]ethyl}-7-morpholin-4-yl-3H-[1,2,3]triazolo[4,5-d]pyrimidin-5-yl)phenol]: the IC50 against PI3 Kinase α stood at 242 nM; at PI3 Kinase γ, 900 nM.

Regarding `O=C(NCCc1ccccc1)c1ccc(Cn2nnc3c(N4CCOCC4)nc(-c4cccc(O)c4)nc32)cc1` [Example 223, 4-{[5-(3-hydroxyphenyl)-7-morpholin-4-yl-3H-[1,2,3]triazolo[4,5-d]pyrimidin-3-yl]methyl}-N-(2-phenylethyl)benzamide], the results for the IC50 on PI3 Kinase α and against PI3 Kinase γ were 175 nM and 2510 nM, respectively.

With `O=C(O)Cn1nnc2c(N3CCOCC3)nc(-c3cccc(CO)c3)nc21` [Example 240, {5-[3-(hydroxymethyl)phenyl]-7-morpholin-4-yl-3H-[1,2,3]triazolo[4,5-d]pyrimidin-3-yl}acetic acid], the IC50 on PI3 Kinase α stood at 658 nM; at PI3 Kinase γ, 1700 nM.

Regarding `c1cc(-c2nc(N3CCOCC3)c3nnn(CCCN4CCCC4)c3n2)c2cn[nH]c2c1` [Example 11, 5-(1H-indazol-4-yl)-7-morpholin-4-yl-3-(3-pyrrolidin-1-ylpropyl)-3H-[1,2,3]triazolo[4,5-d]pyrimidine], the IC50 at PI3 Kinase α worked out at 83 nM; on PI3 Kinase γ it was 132 nM.

As to `CCC(=O)N1CCN(CCn2nnc3c(N4CCOCC4)nc(-c4cccc(O)c4)nc32)CC1` [Example 100, 3-{7-morpholin-4-yl-3-[2-(4-propionylpiperazin-1-yl)ethyl]-3H-[1,2,3]triazolo[4,5-d]pyrimidin-5-yl}phenol], the IC50 at PI3 Kinase α worked out at 1660 nM; on PI3 Kinase γ it was 3140 nM.

In the case of `CCn1nnc2c(N3CCOCC3)nc(-c3ccc(NC(=O)Nc4ccc(C(=O)N5CCC(N6CCOCC6)CC5)cc4)cc3)nc21` [Example 48, 1-[4-(3-ethyl-7-morpholin-4-yl-3H-[1,2,3]triazolo[4,5-d]pyrimidin-5-yl)phenyl]-3-{4-[(4-morpholin-4-ylpiperidin-1-yl)carbonyl]phenyl}urea], the IC50 was determined as 5.5 nM at PI3 Kinase α and 31 nM at PI3 Kinase γ.

On to `CN(C)CCNC(=O)Nc1ccc(-c2nc(N3CCOCC3)c3nnn(C4CCNCC4)c3n2)cc1` [Example 152, 1-(2-(dimethylamino)ethyl)-3-(4-(7-morpholino-3-(piperidin-4-yl)-3H-[1,2,3]triazolo[4,5-d]pyrimidin-5-yl)phenyl)urea], for which the IC50 was 104 nM on PI3 Kinase α and 392 nM at PI3 Kinase γ.

For `CN(C)CCNC(=O)Nc1ccc(-c2nc(N3CCOCC3)c3nnn(C4CCN(Cc5ccc(F)cc5)CC4)c3n2)cc1` [Example 153, 1-(2-(dimethylamino)ethyl)-3-(4-(3-(1-(4-fluorobenzyl)piperidin-4-yl)-7-morpholino-3H-[1,2,3]triazolo[4,5-d]pyrimidin-5-yl)phenyl)urea], the figures for the IC50 against PI3 Kinase α and against PI3 Kinase γ were 146 nM and 176 nM, respectively.

As for `O=C(Nc1ccccc1)Nc1ccc(-c2nc(N3CCOCC3)c3nnn(CC4CN(C(=O)c5ccccc5)C4)c3n2)cc1` [Example 190, 1-(4-{3-[(1-benzoylazetidin-3-yl)methyl]-7-morpholin-4-yl-3H-[1,2,3]triazolo[4,5-d]pyrimidin-5-yl}phenyl)-3-phenylurea], the values for the IC50 against PI3 Kinase α and at PI3 Kinase γ were 19 nM and 346 nM, respectively.

Take `O=C(c1cccc(-n2nnc3c(N4CCOCC4)nc(-c4cccc(O)c4)nc32)c1)N1CCC(N2CCCC2)CC1` [Example 120, 3-(7-morpholin-4-yl-3-{3-[(4-pyrrolidin-1-ylpiperidin-1-yl)carbonyl]phenyl}-3H-[1,2,3]triazolo[4,5-d]pyrimidin-5-yl)phenol]: the IC50 at PI3 Kinase α was 15.5 nM; at PI3 Kinase γ, 290 nM.

Consider `CNC(=O)c1cccc(-n2nnc3c(N4CCOCC4)nc(-c4cccc(O)c4)nc32)c1` [Example 121, 3-[5-(3-hydroxyphenyl)-7-morpholin-4-yl-3H-[1,2,3]triazolo[4,5-d]pyrimidin-3-yl]-N-methylbenzamide], for which the IC50 was 36 nM on PI3 Kinase α and 551 nM against PI3 Kinase γ.

Consider `O=C(c1ccc(F)c(F)c1)N1CCN(CCn2nnc3c(N4CCOCC4)nc(-c4cccc(O)c4)nc32)CC1` [Example 102, 3-(3-{2-[4-(3,4-difluorobenzoyl)piperazin-1-yl]ethyl}-7-morpholin-4-yl-3H-[1,2,3]triazolo[4,5-d]pyrimidin-5-yl)phenol], for which the IC50 at PI3 Kinase α is 1260 nM; at PI3 Kinase γ it was 1920 nM.

Take `O=C(c1ccc(Cn2nnc3c(N4CCOCC4)nc(-c4cccc(O)c4)nc32)cc1)N1CCN(c2ccccc2)CC1` [Example 229, 3-(7-morpholin-4-yl-3-{4-[(4-phenylpiperazin-1-yl)carbonyl]benzyl}-3H-[1,2,3]triazolo[4,5-d]pyrimidin-5-yl)phenol]: the IC50 at PI3 Kinase α was determined as 286 nM; against PI3 Kinase γ it was 10200 nM.

Take `Oc1cccc(-c2nc(N3CCOCC3)c3nnn(CCN4CCCCC4)c3n2)c1` [Example 195, 3-[7-Morpholin-4-yl-3-(2-piperidin-1-ylethyl)-3H-[1,2,3]triazolo[4,5-d]pyrimidin-5-yl]phenol]: the results for the IC50 against PI3 Kinase α and against PI3 Kinase γ were 689 nM and 5210 nM, respectively.

On to `CN(C)CCNC(=O)Nc1ccc(-c2nc(N3CCOCC3)c3nnn(C4CCN(Cc5ccc(-c6ccncc6)cc5)CC4)c3n2)cc1` [Example 160, 1-(2-(dimethylamino)ethyl)-3-(4-(7-morpholino-3-(1-(4-(pyridin-4-yl)benzyl)piperidin-4-yl)-3H-[1,2,3]triazolo[4,5-d]pyrimidin-5-yl)phenyl)urea], for which the IC50 at PI3 Kinase α is 13 nM; against PI3 Kinase γ, 108 nM.

`O=C(c1ccccc1)N1CCN(CCn2nnc3c(N4CCOCC4)nc(-c4cccc(O)c4)nc32)CC1` [Example 99, 3-{3-[2-(4-benzoylpiperazin-1-yl)ethyl]-7-morpholin-4-yl-3H-[1,2,3]triazolo[4,5-d]pyrimidin-5-yl}phenol]: the figures for the IC50 at PI3 Kinase α and against PI3 Kinase γ were 924 nM and 5750 nM, respectively.

Regarding `CCn1nnc2c(N3CCOCC3)nc(-c3ccc(NC(=O)Nc4nccs4)cc3)nc21` [Example 37, 1-[4-(3-ethyl-7-morpholin-4-yl-3H-[1,2,3]triazolo[4,5-d]pyrimidin-5-yl)phenyl]-3-(1,3-thiazol-2-yl)urea], the 50% inhibitory concentration (IC50) against PI3 Kinase α came to 73.5 nM; against PI3 Kinase γ, 156 nM.

On to `Oc1cncc(-c2nc(N3CCOCC3)c3nnn(C4CCN(Cc5ccccc5)CC4)c3n2)c1` [Example 3, 5-[3-(1-benzylpiperidin-4-yl)-7-morpholin-4-yl-3H-[1,2,3]triazolo[4,5-d]pyrimidin-5-yl]pyridin-3-ol], for which the IC50 on PI3 Kinase α is 69 nM; against PI3 Kinase γ, 133 nM.

On to `O=C(c1ccncc1)N1CCN(CCn2nnc3c(N4CCOCC4)nc(-c4cccc(O)c4)nc32)CC1` [Example 103, 3-{3-[2-(4-isonicotinoylpiperazin-1-yl)ethyl]-7-morpholin-4-yl-3H-[1,2,3]triazolo[4,5-d]pyrimidin-5-yl}phenol], for which the IC50 at PI3 Kinase α was determined as 987 nM; on PI3 Kinase γ, 5050 nM.

On to `Oc1cccc(-c2nc(N3CCOCC3)c3nnn(CCN4CCNCC4)c3n2)c1` [Example 98, 3-[7-morpholin-4-yl-3-(2-piperazin-1-ylethyl)-3H-[1,2,3]triazolo[4,5-d]pyrimidin-5-yl]phenol], for which the IC50 on PI3 Kinase α came out at 54 nM; against PI3 Kinase γ it was 595 nM.

`CCn1nnc2c(N3CCOCC3)nc(-c3ccc(NC(=O)Nc4ccc(C(=O)NCCO)cc4)cc3)nc21` [Example 46, 4-({[4-(3-ethyl-7-morpholin-4-yl-3H-[1,2,3]triazolo[4,5-d]pyrimidin-5-yl)phenyl]carbamoyl}amino)-N-(2-hydroxyethyl)benzamide]: the values for the IC50 on PI3 Kinase α and against PI3 Kinase γ were 2.8 nM and 14.5 nM, respectively.

As for `O=C(NCc1ccccc1)c1ccc(Cn2nnc3c(N4CCOCC4)nc(-c4cccc(O)c4)nc32)cc1` [Example 212, N-benzyl-4-{[5-(3-hydroxyphenyl)-7-morpholin-4-yl-3H-[1,2,3]triazolo[4,5-d]pyrimidin-3-yl]methyl}benzamide], the IC50 at PI3 Kinase α is 78 nM; against PI3 Kinase γ it was 766 nM.

For `CC(C)n1nnc2c(N3CCOCC3)nc(-c3ccc(N)cc3)nc21` [Example 81, 4-(3-isopropyl-7-morpholin-4-yl-3H-[1,2,3]triazolo[4,5-d]pyrimidin-5-yl)-phenylamine], the IC50 at PI3 Kinase α stood at 1030 nM; at PI3 Kinase γ it was 4630 nM.

As to `Nc1ncc(CN2CCC(n3nnc4c(N5CCOCC5)nc(-c5cncc(O)c5)nc43)CC2)s1` [Example 171, 5-(3-{1-[(2-amino-1,3-thiazol-5-yl)methyl]piperidin-4-yl}-7-morpholin-4-yl-3H-[1,2,3]triazolo[4,5-d]pyrimidin-5-yl)pyridin-3-ol], the IC50 came out at 76.5 nM on PI3 Kinase α and 144 nM at PI3 Kinase γ.

As for “1-{4-[3-(2-hydroxyethyl)-7-morpholin-4-yl-3H-[1,2,3]triazolo[4,5-d]pyrimidin-5-yl]phenyl}-3-pyridin-4-ylurea [Example 183]”, the IC50 against PI3 Kinase α stood at 5.3 nM; against PI3 Kinase γ it was 20 nM.
